Test results reported in patent US12503471B2, “Triazatricycle compounds for the treatment of autoimmune disease” (Hoffmann-La Roche Inc., priority 2019, dated 2025).

How the values were obtained:
[1] = biological target: T1, human TLR9 (Homo sapiens, UniProt Q9NR96); test: HEK293-Blue-hTLR-9 cells assay; type: cell-based; details: HEK293-Blue-hTLR9 cells, ODN2006 stimulation, 20 hrs, SEAP reporter; read-out: HEK/hTLR9 IC50
T1 construct: host or cells: HEK293 (HEK-Blue hTLR9)
T1 sequence (Q9NR96 26-1032): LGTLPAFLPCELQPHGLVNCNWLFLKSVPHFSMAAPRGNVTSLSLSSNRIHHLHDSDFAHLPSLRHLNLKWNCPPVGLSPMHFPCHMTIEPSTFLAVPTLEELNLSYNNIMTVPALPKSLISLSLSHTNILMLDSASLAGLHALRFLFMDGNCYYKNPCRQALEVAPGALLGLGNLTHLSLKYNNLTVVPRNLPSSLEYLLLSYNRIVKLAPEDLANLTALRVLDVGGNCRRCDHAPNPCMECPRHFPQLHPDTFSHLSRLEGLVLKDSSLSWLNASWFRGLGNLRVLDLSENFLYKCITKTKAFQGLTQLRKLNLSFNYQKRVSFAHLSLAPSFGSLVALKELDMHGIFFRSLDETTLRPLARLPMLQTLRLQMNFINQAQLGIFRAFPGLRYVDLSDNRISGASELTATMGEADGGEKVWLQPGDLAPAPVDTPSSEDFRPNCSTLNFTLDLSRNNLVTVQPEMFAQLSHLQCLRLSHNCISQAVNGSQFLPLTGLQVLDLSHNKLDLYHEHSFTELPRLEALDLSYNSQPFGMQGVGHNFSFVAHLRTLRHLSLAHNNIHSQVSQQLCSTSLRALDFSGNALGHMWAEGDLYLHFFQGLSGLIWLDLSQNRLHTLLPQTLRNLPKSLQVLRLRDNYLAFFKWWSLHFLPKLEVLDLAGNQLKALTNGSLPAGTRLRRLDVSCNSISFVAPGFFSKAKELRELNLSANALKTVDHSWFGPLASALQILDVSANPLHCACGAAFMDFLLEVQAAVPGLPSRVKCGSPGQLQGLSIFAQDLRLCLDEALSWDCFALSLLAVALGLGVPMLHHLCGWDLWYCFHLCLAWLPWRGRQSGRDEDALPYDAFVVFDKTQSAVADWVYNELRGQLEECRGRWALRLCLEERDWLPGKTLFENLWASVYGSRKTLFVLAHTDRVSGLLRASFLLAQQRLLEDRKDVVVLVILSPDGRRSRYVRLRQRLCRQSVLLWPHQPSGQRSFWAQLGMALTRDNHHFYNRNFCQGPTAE
Excerpt: HEK293-Blue-hTLR-9 Cells Assay:
A stable HEK293-Blue-hTLR-9 cell line was purchased from InvivoGen (Cat. #: hkb-htlr9, San Diego, Calif., USA). These cells were originally designed for studying the stimulation of human TLR9 by monitoring the activation of NF-κB. A SEAP (secreted embryonic alkaline phosphatase) reporter gene was placed under the control of the IFN-β minimal promoter fused to five NF-κB and AP-1-binding sites. The SEAP was induced by activating NF-κB and AP-1 via stimulating HEK-Blue hTLR9 cells with TLR9 ligands. Therefore the reporter expression was declined by TLR9 antagonist under the stimulation of a ligand, such as ODN2006 (Cat. #: tlrl-2006-1, Invivogen, San Diego, Calif., USA), for incubation of 20 hrs. The cell culture supernatant SEAP reporter activity was determined using QUANTI-Blue^TM kit (Cat. #: rep-qbl, Invivogen, San Diego, Calif., USA) at a wavelength of 640 nm, a detection medium that turns purple or blue in the presence of alkaline phosphatase.
HEK293-Blue-hTLR9 cells were incubated at a density of 250,000˜450,000 cells/mL in a volume of 170 μL in a 96-well plate in Dulbecco's Modified Eagle's medium (DMEM) containing 4.5 g/L glucose, 50 U/mL penicillin, […] streptomycin, […] Normocin, 2 mM L-glutamine, 10% (v/v) heat-inactivated fetal bovine serum with addition of 20 μL test compound in a serial dilution in the presence of final DMSO at 1% and 10 μL of 20 uM ODN2006 in above DMEM, perform incubation under 37° C. in a CO2 incubator for 20 hrs. Then 20 μL of the supernatant from each well was incubated with 180 μL Quanti-blue substrate solution at 37° C. for 2 h and the absorbance was read at 620-655 nm using a spectrophotometer. The signaling pathway that TLR9 activation leads to downstream NF-κB activation has been widely accepted, and therefore similar reporter assay was modified for evaluating TLR9 antagonist.

[2] = Human microsomal stability assay; type: in vitro ADME; details: human liver microsomes, 1 μM test compound, 0.5 mg/mL protein, 37° C., pH 7.4
Method: Human Microsomal Stability Assay
Human liver microsomes (Cat.NO.: 452117, Corning, USA) were preincubated with test compound for 10 minutes at 37° C. in 100 mM potassium phosphate buffer, pH 7.4. The reactions were initiated by adding NADPH regenerating system. The final incubation mixtures contained 1 μM test compound, 0.5 mg/mL liver microsomal protein, 1 mM MgCl2, 1 mM NADP, 1 unit/mL isocitric dehydrogenase and 6 mM isocitric acid in 100 mM potassium phosphate buffer, pH 7.4. After incubation times of 0, 3, 6, 9, 15 and 30 minutes at 37° C., 300 μL of cold ACN (including internal standard) was added to 100 μL incubation mixture to terminate the reaction. Following precipitation and centrifugation, 100 uL supernatant will be taken out and added 300 uL water. The amount of compound remaining in the samples was determined by LC-MS/MS. Controls of no NADPH regenerating system at zero and 30 minutes were also prepared and analyzed. The results were categorized as: low (7.0 mL/min/kg), medium (7.0-16.2 mL/min/kg) and high (16.2-23.2 mL/min/kg).

Row | SMILES | IC50 [1] [nM] | CL (h) [2] [mL/min/kg]
1 | C[C@@H]1CN(c2ccc(C#N)n3nccc23)C[C@@H]2c3ccc(N4C[C@@H]5C[C@H]4CN5)nc3CN12 [Example 21, 4-[(2S,6R)-11-[(1S,4S)-2,5-diazabicyclo[2.2.1]heptan-2-yl]-6-methyl-4,7,10-triazatricyclo[7.4.0.02,7]trideca-1(9),10,12-trien-4-yl]pyrazolo[1,5-a]pyridine-7-carbonitrile] | 177 | 6.6
2 | C[C@@H]1CN(c2ccc(C#N)c3ncccc23)C[C@@H]2c3ccc(N4CCNCC4)nc3CN12 [Example 5, 5-[(2S,6R)-6-methyl-11-piperazin-1-yl-4,7,10-triazatricyclo[7.4.0.02,7]trideca-1(9),10,12-trien-4-yl]quinoline-8-carbonitrile] | 252 | 8.1
3 | [2H]c1ccc2c(N3C[C@@H](C)N4Cc5nc(N6CC[C@](C)(N)C6)ccc5[C@H]4C3)ccc(C#N)c2n1 [Example 8, 5-[(2S,6R)-11-[(3S)-3-amino-3-methyl-pyrrolidin-1-yl]-6-methyl-4,7,10-triazatricyclo[7.4.0.02,7]trideca-1(9),10,12-trien-4-yl]-2-deuterio-quinoline-8-carbonitrile] | 139 | 6.2
4 | [2H]c1ccc2c(N3C[C@@H](C)N4Cc5nc(N6C[C@@H]7C[C@H]6CN7)ccc5[C@H]4C3)ccc(C#N)c2n1 [Example 16, 2-Deuterio-5-[(2S,6R)-11-[(1S,4S)-2,5-diazabicyclo[2.2.1]heptan-2-yl]-6-methyl-4,7,10-triazatricyclo[7.4.0.02,7]trideca-1(9),10,12-trien-4-yl]quinoline-8-carbonitrile] | 121 | 6.2
5 | [2H]c1ccc2c(N3C[C@@H](C)N4Cc5nc(N6CC[C@@](C)(N)C6)ccc5[C@H]4C3)ccc(C#N)c2n1 [Example 7, 5-[(2S,6R)-11-[(3R)-3-amino-3-methyl-pyrrolidin-1-yl]-6-methyl-4,7,10-triazatricyclo[7.4.0.02,7]trideca-1(9),10,12-trien-4-yl]-2-deuterio-quinoline-8-carbonitrile] | 236 | 6.2
6 | [2H]c1ccc2c(N3C[C@@H](C)N4Cc5nc(C6CCNCC6)ccc5[C@H]4C3)ccc(C#N)c2n1 [Example 23, 2-Deuterio-5-[(2S,6R)-6-methyl-11-(4-piperidyl)-4,7,10-triazatricyclo[7.4.0.02,7]trideca-1(9),10,12-trien-4-yl]quinoline-8-carbonitrile] | 232 | 6.2

Results, then the molecule that gave them:

Row | IC50 [1] [nM] | CL (h) [2] [mL/min/kg] | SMILES
7 | 142 | 8.4 | N#Cc1ccc(N2CCN3Cc4nc(N5CCNCC5)ccc4[C@@H]3C2)c2cccnc12 [Example 3A, 5-[(2R)-11-piperazin-1-yl-4,7,10-triazatricyclo[7.4.0.02,7]trideca-1(9),10,12-trien-4-yl]quinoline-8-carbonitrile]
8 | 56.6 | 8.9 | CC1(N)CCN(c2ccc3c(n2)CN2CCN(c4ccc(C#N)c5ncccc45)C[C@@H]32)CC1 [Example 4A, 5-[(2R)-11-(4-amino-4-methyl-1-piperidyl)-4,7,10-triazatricyclo[7.4.0.02,7]trideca-1(9),10,12-trien-4-yl]quinoline-8-carbonitrile]
